Assay results taken from patent US20240251792A1, “WEED CONTROL METHOD” (SYNGENTA CROP PROTECTION AG, priority 2021, published 2024).
Read-outs that look alike come from different tables or passages of the source.

Experiments:
Type in all cases: in vivo
ZEAMX = assay: Pre-emergence biological efficacy (Table 3); settings: after 13 days
Outline: (§1)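 Visual damage score (0 = no damage, 100 = total damage) read 13 days after spraying. Pots were sown one day earlier and held at 24/19 °C, 16 h light; the 50 g/l acetone/AMA formulation was diluted in 0.2% Genapol X080 to the final dose.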

SETFA = assay: Pre-emergence biological efficacy (Table 3); settings: Setaria faberi, 312 h, after 13 days, read-out: evaluation (100=total damage to plant; 0=no damage to plant)
Outline: as §1

AMARE [1] = assay: Pre-emergence biological efficacy (Table 3); settings: after 13 days
Outline: as §1

ECHCG = assay: Pre-emergence biological efficacy (Table 3); settings: after 13 days
Outline: as §1

AMAPA = assay: Pre-emergence biological efficacy (Table 3); settings: 312 h, after 13 days, read-out: evaluation (100=total damage to plant; 0=no damage to plant)
Outline: as §1

IPOHE = assay: Pre-emergence biological efficacy (Table 3); settings: after 13 days
Outline: as §1

weeds and/or crops = assay: Post-emergence biological efficacy (Table 4); settings: evaluated after 13 days; for pest or weed control at 250 g/ha / pest or weed control at 1000 g/ha: 312 h
Outline: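 Scores are visual damage (0 = none, 100 = total), read 13 days after treatment at 24/18 °C with 15 h light. Plants had been sown in standard soil and grown 14 days before a spray of compound in F50/acetone, diluted with 0.2% Genapol X080.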

ABUTH = assay: Pre-emergence biological efficacy (Table 3); settings: after 13 days
Outline: as §1

STEME [2] = assay: Pre-emergence biological efficacy (Table 3); settings: after 13 days
Outline: as §1

LOLPE [3] = assay: Biological efficacy, post-emergence glasshouse test (Table 2); settings: 1000 g/ha, after 12 days
Protocol: (§2) Seeds of a variety of test species were shown in unsterilised compost in small pots. After cultivation for one day (pre-emergence) or seven days (post-emergence) in controlled conditions in the glasshouse (at 24/16° C., day/night; 14 hours light; 65% humidity) the plants were sprayed with 1 mg of the active ingredient, formulated in 466 μl of a acetone/water/Tween 20 (49.75:49.75:0.5) solution, which is equivalent to 1000 g/ha. Once the foliage was dry, the pots were kept in the glasshouse (at 24/16° C., day/night; 14 hours light; 65% humidity), and were watered twice daily. After 12 days the test was evaluated and scored (100=total damage to plant, 0=no damage to plant).

DIGSA [4] = assay: as above; settings: 1000 g/ha, after 12 days
Protocol: as §2

AMARE [5] = assay: as above; settings: 1000 g/ha, after 12 days
Protocol: as §2

STEME [6] = assay: as above; settings: 1000 g/ha, after 12 days
Protocol: as §2

LOLPE [7] = assay: Biological efficacy, pre-emergence glasshouse test (Table 2); settings: 1000 g/ha, after 12 days
Protocol: as §2

DIGSA [8] = assay: as above; settings: 1000 g/ha, after 12 days
Protocol: as §2

AMARE [9] = assay: as above; settings: 1000 g/ha, after 12 days
Protocol: as §2

STEME [10] = assay: as above; settings: 1000 g/ha, after 12 days
Protocol: as §2

[11] = 312 h, 1000 g/ha, read-out: evaluation (100=total damage to plant; 0=no damage to plant)
[12] = Amaranthus retroflexus, 312 h, 1000 g/ha, read-out: evaluation (100=total damage to plant; 0=no damage to plant)
[13] = Echinochloa crus-galli, 312 h, 1000 g/ha, read-out: evaluation (100=total damage to plant; 0=no damage to plant)
[14] = Ipomoea hederacea, 312 h, 1000 g/ha, read-out: evaluation (100=total damage to plant; 0=no damage to plant)
[15] = AMAPA, 1000 g/ha, read-out: damage to plant AMAPA (100=total damage; 0=no damage)
[16] = ZEAMX, 1000 g/ha, read-out: damage to plant ZEAMX (100=total damage; 0=no damage)
[17] = Amaranthus retroflexus, AMARE, 1000 g/ha, read-out: damage to plant AMARE (100=total damage; 0=no damage)
[18] = Echinochloa crus-galli, ECHCG, 1000 g/ha, read-out: damage to plant ECHCG (100=total damage; 0=no damage)
[19] = Ipomoea hederacea, IPOHE, 1000 g/ha, read-out: damage to plant IPOHE (100=total damage; 0=no damage)
[20] = Setaria faberi, SETFA, 1000 g/ha, read-out: damage to plant SETFA (100=total damage; 0=no damage)

| SMILES | plant injury at 1000 g/ha (ZEAMX; [11]) | pest or weed control at 1000 g/ha (SETFA) | pest or weed control at 1000 g/ha (AMARE [1]; [12]) | pest or weed control at 1000 g/ha (ECHCG; [13]) | pest or weed control at 1000 g/ha (AMAPA) | pest or weed control at 1000 g/ha (IPOHE; [14]) | pest or weed control at 1000 g/ha (weeds and/or crops; [15]) | pest or weed control at 1000 g/ha (weeds and/or crops; [16]) | pest or weed control at 1000 g/ha (weeds and/or crops; [17]) | pest or weed control at 1000 g/ha (weeds and/or crops; [18]) | pest or weed control at 1000 g/ha (weeds and/or crops; [19]) | pest or weed control at 1000 g/ha (weeds and/or crops; [20]) | also measured |
| --- | --- | --- | --- | --- | --- | --- | --- | --- | --- | --- | --- | --- | --- |
| O=C(O)C(F)(F)c1ccc(OC(F)(F)F)cc1Cl [Compound 1-59, 2-[2-Chloro-4-(trifluoromethoxy)phenyl]-2,2-difluoro-acetic acid] |  |  |  |  |  |  |  |  |  |  |  |  | plant injury at 250 g/ha (ZEAMX; 312 h, 250 g/ha, read-out: evaluation (100=total damage to plant; 0=no damage to plant)): 0%; pest or weed control at 250 g/ha (SETFA; 250 g/ha): 10%; pest or weed control at 250 g/ha (AMARE [1]; Amaranthus retroflexus, 312 h, 250 g/ha, read-out: evaluation (100=total damage to plant; 0=no damage to plant)): 20%; pest or weed control at 250 g/ha (ECHCG; Echinochloa crus-galli, 312 h, 250 g/ha, read-out: evaluation (100=total damage to plant; 0=no damage to plant)): 0%; pest or weed control at 250 g/ha (AMAPA; 250 g/ha): 20%; pest or weed control at 250 g/ha (IPOHE; Ipomoea hederacea, 312 h, 250 g/ha, read-out: evaluation (100=total damage to plant; 0=no damage to plant)): 10%; pest or weed control at 250 g/ha (weeds and/or crops; AMAPA, read-out: damage to plant AMAPA (100=total damage; 0=no damage)): 60%; pest or weed control at 250 g/ha (weeds and/or crops; ZEAMX, read-out: damage to plant ZEAMX (100=total damage; 0=no damage)): 0%; pest or weed control at 250 g/ha (weeds and/or crops; Amaranthus retroflexus, AMARE, read-out: damage to plant AMARE (100=total damage; 0=no damage)): 60%; pest or weed control at 250 g/ha (weeds and/or crops; Echinochloa crus-galli, ECHCG, read-out: damage to plant ECHCG (100=total damage; 0=no damage)): 0%; pest or weed control at 250 g/ha (weeds and/or crops; Ipomoea hederacea, IPOHE, read-out: damage to plant IPOHE (100=total damage; 0=no damage)): 40%; pest or weed control at 250 g/ha (weeds and/or crops; Setaria faberi, SETFA, read-out: damage to plant SETFA (100=total damage; 0=no damage)): 10% |
| COc1cccc(C(F)(F)C(=O)O)c1F [Compound 1-190, 2,2-Difluoro-2-(2-fluoro-3-methoxy-phenyl)acetic acid] | 0% | 20% | 80% | 0% | 80% | 90% | 80% | 10% | 90% | 40% | 60% | 20% |  |
| N#Cc1cccc(C(F)(F)C(=O)O)c1F [Compound 1-192, 2-(3-Cyano-2-fluoro-phenyl)-2,2-difluoro-acetic acid] | 0% | 50% | 80% | 0% | 70% | 70% | 80% | 20% | 80% | 30% | 70% | 60% |  |
| COc1cccc(C(F)(F)C(=O)O)c1C [Compound 1-242, 2,2-Difluoro-2-(3-methoxy-2-methyl-phenyl)acetic acid] | 10% | 10% | 70% | 0% | 70% | 60% | 80% | 10% | 80% | 10% | 70% | 10% |  |
| Cc1c(C#N)cccc1C(F)(F)C(=O)O [Compound 1-244, 2-(3-Cyano-2-methyl-phenyl)-2,2-difluoro-acetic acid] | 40% | 90% | 90% | 50% | 80% | 90% | 90% | 60% | 90% | 60% | 70% | 70% |  |
| COCc1c(Cl)cccc1C(F)(F)C(=O)O [Compound 1-436, 2-[3-Chloro-2-(methoxymethyl)phenyl]-2,2-difluoro-acetic acid] | 0% | 20% | 30% | 0% | 40% | 40% |  |  |  |  |  |  |  |
| CCOC(=O)C(F)(F)c1cccc2cccc(C(F)(F)C(=O)OCC)c12 [Compound 3-419, Ethyl 2-[8-(2-ethoxy-1,1-difluoro-2-oxo-ethyl)-1-naphthyl]-2,2-difluoro-acetate] | 0% |  | 20% | 0% |  | 10% |  | 0% | 20% | 0% | 70% |  | pest or weed control at 1000 g/ha (ABUTH; Abutilon theophrasti, 312 h, read-out: evaluation (100=total damage to plant; 0=no damage to plant)): 30%; pest or weed control at 1000 g/ha (STEME [2]; 312 h, read-out: evaluation (100=total damage to plant; 0=no damage to plant)): 40%; pest or weed control at 1000 g/ha (weeds and/or crops; STEME, 1000 g/ha, read-out: damage to plant STEME (100=total damage; 0=no damage)): 100%; pest or weed control at 1000 g/ha (weeds and/or crops; Abutilon theophrasti, ABUTH, 1000 g/ha, read-out: damage to plant ABUTH (100=total damage; 0=no damage)): 80%; score (100=total damage to plant, 0=no damage to plant) (LOLPE [3]): 0; score (100=total damage to plant, 0=no damage to plant) (DIGSA [4]): 40; score (100=total damage to plant, 0=no damage to plant) (AMARE [5]): 80; score (100=total damage to plant, 0=no damage to plant) (STEME [6]): 70; score (100=total damage to plant, 0=no damage to plant) (LOLPE [7]): 0; score (100=total damage to plant, 0=no damage to plant) (DIGSA [8]): 0; score (100=total damage to plant, 0=no damage to plant) (AMARE [9]): 80; score (100=total damage to plant, 0=no damage to plant) (STEME [10]): 60 |
| N.N#Cc1cccc(C(F)(F)C(=O)O)c1Cl [Compound 7-231, Ammonium;2-(2-chloro-3-cyano-phenyl)-2,2-difluoro-acetate] |  |  |  |  |  |  |  |  |  |  |  |  | evaluation (100=total damage to plant; 0=no damage to plant) (ZEAMX; 1000 g/ha): 50; evaluation (100=total damage to plant; 0=no damage to plant) (ABUTH; 1000 g/ha): 90; evaluation (100=total damage to plant; 0=no damage to plant) (AMARE [1]; 1000 g/ha): 90; evaluation (100=total damage to plant; 0=no damage to plant) (ECHCG; 1000 g/ha): 10; evaluation (100=total damage to plant; 0=no damage to plant) (STEME [2]; 1000 g/ha): 100; evaluation (100=total damage to plant; 0=no damage to plant) (IPOHE; 1000 g/ha): 80; damage to plant ABUTH (100=total damage; 0=no damage) (weeds and/or crops; ABUTH, 1000 g/ha): 90; damage to plant AMARE (100=total damage; 0=no damage) (weeds and/or crops; AMARE, 1000 g/ha): 90; damage to plant ECHCG (100=total damage; 0=no damage) (weeds and/or crops; ECHCG, 1000 g/ha): 10; damage to plant IPOHE (100=total damage; 0=no damage) (weeds and/or crops; IPOHE, 1000 g/ha): 80; damage to plant STEME (100=total damage; 0=no damage) (weeds and/or crops; STEME, 1000 g/ha): 100; damage to plant ZEAMX (100=total damage; 0=no damage) (weeds and/or crops; ZEAMX, 1000 g/ha): 30; score (100=total damage to plant, 0=no damage to plant) (LOLPE [3]): 0; score (100=total damage to plant, 0=no damage to plant) (DIGSA [4]): 70; score (100=total damage to plant, 0=no damage to plant) (AMARE [5]): 90; score (100=total damage to plant, 0=no damage to plant) (STEME [6]): 80; score (100=total damage to plant, 0=no damage to plant) (LOLPE [7]): 40; score (100=total damage to plant, 0=no damage to plant) (DIGSA [8]): 80; score (100=total damage to plant, 0=no damage to plant) (AMARE [9]): 90; score (100=total damage to plant, 0=no damage to plant) (STEME [10]): 100 |
